Measurements as given in patent US8936941B2, “Compositions useful for cancer detection and treatment, a cancer stem cell model, and methods of production and use thereof” (priority 2008, dated 2015).

What was measured:
PICSCs = experiment: Growth and survival of PICSCs after drug treatment; format: cell-based, mouse; conditions: siRNA transfection, 10 nM
Experimental: The PICSCs cells were treated with 100 μM drug (suprapharmacological dose) for 48 hours, and their growth and survival were evaluated. […] Moreover, the in vitro testing strategies allows for a mechanistic study of such compounds.

let-7a miRNA = experiment: pLet7a-Luc luciferase reporter gene assay in SW480 cells; format: cell-based, human; conditions: normalized to Renilla luciferase
Experimental: Luciferase reporter gene assay. pLet7a-Luc reporter vector contains a let-7a miRNA specific binding site at the 3′UTR of the firefly (Photinus pyralis) luciferase gene obtained from Signosis Inc (FIG. 26). HCT116 and SW480 cells were transfected with the pLet7a-Luc reporter vector, Renilla luciferase expressing plasmid pRL-TK (Promega) along with DCAMKL-1 or scrambled siRNA using Transfectol™ (Ambion Inc.). Luciferase activity was determined as per the manufacturer's instructions (Dual-Luciferase Reporter Assay System; Promega) using a Monolight 2010 luminometer (Analytical Luminescence Laboratory, San Diego, Calif.) as described earlier [Stadler et al., 2008; Sossey-Alaoui et al., 1999]. The activity, normalized to Renilla Luciferase activity, is presented as relative luciferase units relative to control with ±SEM values. Assays were performed in triplicate wells and experiments were repeated 3 times.

DCAMKL-1 = experiment: siRNA knockdown of DCAMKL-1 in SW480 cells, real-time RT-PCR and Western blot; format: cell-based, human
Sequence of DCAMKL-1 (O15075 other isoform, or with tags, fused parts or gaps): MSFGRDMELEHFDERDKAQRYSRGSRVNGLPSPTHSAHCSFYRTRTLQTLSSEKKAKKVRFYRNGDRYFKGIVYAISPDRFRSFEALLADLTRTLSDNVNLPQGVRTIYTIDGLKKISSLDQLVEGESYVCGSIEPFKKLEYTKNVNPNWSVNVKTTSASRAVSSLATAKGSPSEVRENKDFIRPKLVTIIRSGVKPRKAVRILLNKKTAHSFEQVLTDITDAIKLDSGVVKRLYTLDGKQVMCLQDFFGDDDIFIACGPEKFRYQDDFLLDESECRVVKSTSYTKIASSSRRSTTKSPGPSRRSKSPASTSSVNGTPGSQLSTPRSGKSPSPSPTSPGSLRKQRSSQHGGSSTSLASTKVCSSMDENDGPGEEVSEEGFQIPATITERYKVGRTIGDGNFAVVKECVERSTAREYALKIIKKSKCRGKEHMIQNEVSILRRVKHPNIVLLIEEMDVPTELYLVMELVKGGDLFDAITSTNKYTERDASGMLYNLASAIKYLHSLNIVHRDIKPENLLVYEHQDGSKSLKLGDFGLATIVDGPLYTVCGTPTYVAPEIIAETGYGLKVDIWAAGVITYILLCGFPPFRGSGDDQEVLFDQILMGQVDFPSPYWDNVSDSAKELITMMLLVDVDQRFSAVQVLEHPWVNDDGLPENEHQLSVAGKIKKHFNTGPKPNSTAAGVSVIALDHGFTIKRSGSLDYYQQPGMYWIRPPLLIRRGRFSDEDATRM
Experimental: Cell culture. HCT116, HCT116 p21^−/− and SW480 human colon adenocarcinoma cell lines were obtained from the American Type Culture Collection (ATCC) and grown in Dulbecco's modified eagle's medium (DMEM) supplemented with 10% fetal bovine serum and 100 U/mL penicillin-streptomycin in a humidified chamber at 37° C. with 5% CO2.
Silencer RNA. DCAMKL-1 siRNA (si-DCAMKL-1) sequence targeting the coding region of DCAMKL-1 (Accession # NM_004734 (SEQ ID NO:1)) ([…] (SEQ ID NO:3)) and scrambled control siRNAs (si-Scr) not matching any of the human genes were obtained (Ambion Inc., Austin, Tex.) and transfected using Transfectol™ (Ambion Inc.).
Real-time reverse transcription-PCR analyses. Total RNA isolated either from cells or from human colon cancer cell tumor xenograft samples was subjected to reverse transcription with Superscript™ II RNase H—Reverse Transcriptase and random hexanucleotide primers (Invitrogen, Carlsbad, Calif.). The cDNA was subsequently used to perform Real-time PCR by SYBR chemistry (SYBR® Green I; Molecular Probes) for specific transcripts using gene specific primers and Jumpstart Taq DNA polymerase (Sigma-Aldrich, St. Louis, Mo.). […] The changes in mRNA were expressed as fold change relative to control with ±SEM value.
miRNA analysis. Total miRNA was isolated using mirVana™ miRNA isolation kit (Ambion Inc.). Total miRNA isolated either from cells or from human colon cancer cell tumor xenograft samples were subjected to reverse transcription with Superscript™ II RNase H—Reverse Transcriptase and random hexanucleotide primers (Invitrogen, Carlsbad, Calif.). The cDNA was subsequently used to perform Real-time PCR by SYBR chemistry (SYBR® Green I; Molecular Probes) for pri-let-7a transcript using specific primers and Jumpstart Taq DNA polymerase (Sigma-Aldrich, St. Louis, Mo.). […] The changes in pri-miRNA were expressed as fold change relative to control with ±SEM value. Primers used are: […]
Western Blot analysis. HCT116 and SW480 cells were cultured in a 6 well plates to 40% confluency and were transfected with si-DCAMKL-1 or si-Scr for 72 h. Cells or the tumor xenograft samples were lysed and the concentration of protein was determined by BCA protein assay kit (Pierce Biotechnology Inc., Rockford, Ill.). Forty μg of the protein was size separated in a 7.5-15% SDS polyacrylamide gel and transferred onto a nitrocellulose membrane with a semidry transfer apparatus (Amersham-Pharmacia, Piscataway, N.J.). The membrane was blocked in 5% non-fat dry milk for 1 h and probed overnight with a rabbit anti-DCAMKL-1 antibody (Abcam Inc., Cambridge, Mass.) or with rabbit anti-c-Myc antibody (Santa Cruz). Subsequently, the membrane was incubated with anti-rabbit or anti-goat IgG horseradish peroxidase-conjugated antibodies (Amersham-Pharmacia) for 1 h at room temperature. The 82 kDa DCAMKL-1 and 49 kDa c-Myc proteins were detected using ECL™ Western Blotting detection reagents (Amersham-Pharmacia). Actin (43 kDa), used as loading control was identified using a goat polyclonal IgG (Santa Cruz Biotechnology Inc., Santa Cruz, Calif.).

PICSC tumor xenografts = experiment: PICSC generated isograft tumor growth in mice; format: in vivo; conditions: siRNA injected from day 15, 5 times at an interval of 3 days
Experimental: To determine whether targeted DCAMKL-1 downregulation and/or Notch inhibition affected […] generated isograft tumor growth, mice were treated with siRNA to DCAMKL-1 or the Notch inhibitor DAPT. After the tumors were allowed to develop (15 days), siRNA was injected a total of 5 times at an interval of 3 days as described earlier.

[1] = real-time RT-PCR, compared to controls

si-DCAMKL-1: siRNA targeting the coding region of DCAMKL-1 (NM_004734), sequence GGGAGUGAGAACAAUCUAC (SEQ ID NO:3) (chemistry not given here; listed as Homo sapiens)
neurite formation, cell growth and cell death of PICSCs (PICSCs): inhibited neurite formation, suppressed cell growth and induced cell death | luciferase activity (let-7a binding site at 3' UTR) (let-7a miRNA): dose dependent reduction | c-Myc mRNA and protein (DCAMKL-1): Reduction | reduction in Notch-1 mRNA (DCAMKL-1): > 50% | Notch-1 and cleaved Notch-1 protein (DCAMKL-1; Western blot): dose dependent reduction | DCAMKL-1 protein (DCAMKL-1; Western blot, 72 h transfection): reduction | reduction in DCAMKL-1 mRNA expression (DCAMKL-1; real-time RT-PCR): > 70% | increase in pri-let-7a miRNA (DCAMKL-1; [1]): 4 fold | increase in pri-miR-144 miRNA (DCAMKL-1; [1]): 3 fold | isograft tumor growth (PICSC tumor xenografts): growth arrest
